Here are results for 13 compounds from ChEMBL document CHEMBL1201862, “PubChem BioAssay data set” (2004).

Test systems include SF-268; SW-620; UACC-257; U-251; LOX IMVI; KM12; SF-539; TK-10; MOLT-4; Malme-3M; UO-31; SNB-75; 786-0; RPMI-8226; SK-MEL-2; PC-3; DU-145; MCF7; MDA-MB-231.
Experiment in all cases: DTP human tumour cell line panel, 48 h

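Values below derive from 48-hour exposures of cells grown in 96-well plates, with endpoints linearly interpolated between the two concentrations bracketing the appropriate inhibition level. Abbreviation: GI50, concentration required for 50% inhibition of growth.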 Calls of active or inactive are those of the source. Rule as the data show it: active = GI50 up to about 1.1 µM and inactive = higher.

As for `N#CC1(C#N)C2C=CC(c3coc4cccc2c34)C1(C#N)C#N` (stereo not given), the GI50 in the assay on SF-268 was 6.27 µM (inactive); in the assay with SW-620, 1.61 µM (inactive); in the assay with UACC-257, 10.8 µM (inactive); with U-251, 19.5 µM (inactive); in the assay with LOX IMVI, 15.2 µM (inactive); in the assay with KM12 it was 18.3 µM (inactive). In addition, the GI50 in the assay with SF-539 was 20.2 µM (inactive); with TK-10, 7.05 µM (inactive); in the assay with MOLT-4, 1.67 µM (inactive); in the assay on Malme-3M it was 7.05 µM (inactive); in the assay on UO-31, 12.8 µM (inactive); in the assay on SNB-75, 19.4 µM (inactive). Further, the figures for the GI50 in the assay with 786-0, in the assay on RPMI-8226 and in the assay on SK-MEL-2 were 20.5 µM (inactive), 4.86 µM (inactive) and 31.7 µM (inactive), respectively.
On to `O=C1OC(O)c2cc3c(cc21)OCO3` (stereo not given), for which the GI50 in the assay with SF-268, in the assay with SW-620, in the assay on UACC-257, in the assay with U-251, in the assay with LOX IMVI and in the assay with KM12 was > 100 µM (inactive) each time. The GI50 in the assay on SF-539, in the assay on TK-10, in the assay with MOLT-4, in the assay on Malme-3M, in the assay with UO-31 and in the assay with SNB-75 was > 100 µM (inactive) each time. Further, the GI50 in the assay on 786-0, with RPMI-8226 and in the assay with SK-MEL-2 was > 100 µM (inactive) in each case.
With `O=C(COc1ccc(OCC(=O)N2C(=O)CC(=O)N(c3ccccc3)C2=S)cc1)N1C(=O)CC(=O)N(c2ccccc2)C1=S`, the GI50 is 43.2 µM (inactive) in the assay on SF-268; 72.1 µM (inactive) in the assay on SW-620; 82.2 µM (inactive) in the assay with UACC-257; 56.9 µM (inactive) in the assay on PC-3; 46.1 µM (inactive) with U-251; 55.7 µM (inactive) in the assay with DU-145. Also, the GI50 in the assay with KM12 was 27.4 µM (inactive); with TK-10, > 100 µM (inactive); with MOLT-4 it was 41.8 µM (inactive); with Malme-3M, > 100 µM (inactive); in the assay with UO-31 it was 61.4 µM (inactive); with SNB-75, > 100 µM (inactive). Further, the GI50 in the assay on 786-0 is 56.1 µM (inactive); in the assay with RPMI-8226, 31.1 µM (inactive); with MCF7, 45.9 µM (inactive); in the assay on MDA-MB-231, 46.8 µM (inactive); in the assay on SK-MEL-2, 43.4 µM (inactive).
For the compound `CC1(C)C(=O)C(O)=CC2C1=CCC1C2(C)C(=O)CC2(C)C(C(C)(O)C(=O)CC(O)C(C)(C)O)C(O)CC12C` (stereo not given), the GI50 with SF-268 is 3.11 µM (inactive); in the assay with SW-620, 3.57 µM (inactive); with UACC-257, 3.52 µM (inactive); in the assay with U-251 it was 2.65 µM (inactive); in the assay on LOX IMVI, 2.5 µM (inactive); in the assay on KM12, 9.14 µM (inactive). The GI50 was 2.57 µM (inactive) in the assay with SF-539; 2.54 µM (inactive) with TK-10; 17.1 µM (inactive) with MOLT-4; 3.54 µM (inactive) in the assay with Malme-3M; 2.02 µM (inactive) with UO-31; 0.989 µM (active) with SNB-75. For the same compound, the GI50 in the assay with 786-0 is 2.45 µM (inactive); with RPMI-8226 it was 3.4 µM (inactive); in the assay on SK-MEL-2 it was 2.61 µM (inactive).
In the case of `C=C(CN(CC(=C)C(=O)c1ccccc1)C(C)(C)C)C(=O)c1ccccc1`, the GI50 in the assay on SF-268 is 12.2 µM (inactive); in the assay with SW-620, 2.82 µM (inactive); in the assay with UACC-257 it was 17 µM (inactive); in the assay with U-251, 20.5 µM (inactive); in the assay on DU-145 it was 19.6 µM (inactive); with LOX IMVI, 16.4 µM (inactive). For the same compound, the GI50 is 13 µM (inactive) in the assay with KM12; 16.8 µM (inactive) in the assay with SF-539; 13.8 µM (inactive) with TK-10; 2.49 µM (inactive) in the assay on MOLT-4; 15.3 µM (inactive) in the assay on Malme-3M; 11.7 µM (inactive) with UO-31. Moreover, the GI50 with SNB-75 is 12.8 µM (inactive); in the assay on 786-0, 11.3 µM (inactive); with RPMI-8226, 4.38 µM (inactive); with SK-MEL-2, 18.2 µM (inactive).
Take `COC1CCC(=C2C(=O)OC(C)(C)OC2=O)N1` (stereo not given): the GI50 with SF-268, in the assay with SW-620, in the assay on UACC-257, with U-251, in the assay with LOX IMVI and in the assay with KM12 was > 100 µM (inactive) in each case. Moreover, the GI50 in the assay on SF-539, with TK-10, in the assay with MOLT-4, in the assay on Malme-3M, in the assay with UO-31 and in the assay with SNB-75 was > 100 µM (inactive) in each case. For the same compound, the GI50 in the assay on 786-0, in the assay with RPMI-8226 and with SK-MEL-2 was > 100 µM (inactive) each time.
In the case of `CCN(CC)c1ccc(Cl)c2c1C(O)(C(C)C)C2(C)C` (stereo not given), the GI50 is 28.2 µM (inactive) in the assay with SF-268; 18.1 µM (inactive) with SW-620; 14.5 µM (inactive) in the assay with UACC-257; 16.8 µM (inactive) with U-251; 17.3 µM (inactive) with LOX IMVI; 15.1 µM (inactive) in the assay on KM12. Further, the GI50 was 19.8 µM (inactive) with SF-539; 16.6 µM (inactive) in the assay on TK-10; 16.5 µM (inactive) in the assay on MOLT-4; 13.9 µM (inactive) with Malme-3M; 17.3 µM (inactive) with UO-31; 18 µM (inactive) in the assay with SNB-75. For the same compound, the GI50 in the assay with 786-0 is 14.5 µM (inactive); with RPMI-8226, 13.2 µM (inactive); in the assay on SK-MEL-2, 14.1 µM (inactive).
Consider `Cc1c(C(=O)/C=C/C=C/c2ccccc2)[n+]([O-])c2ccccc2[n+]1[O-]`, for which the GI50 was 29.5 µM (inactive) with SF-268; 22.4 µM (inactive) with SW-620; 28.2 µM (inactive) with UACC-257; 33.7 µM (inactive) in the assay on U-251; 31.1 µM (inactive) in the assay on LOX IMVI; 16.8 µM (inactive) with KM12. The GI50 in the assay with SF-539 is 40 µM (inactive); in the assay with TK-10, 50.8 µM (inactive); with MOLT-4, 40.5 µM (inactive); in the assay with Malme-3M, 28.9 µM (inactive); in the assay on UO-31, 38.4 µM (inactive); in the assay on SNB-75, 34.2 µM (inactive). Also, the GI50 was 21.9 µM (inactive) with 786-0, > 10 µM (inactive) in the assay with RPMI-8226 and 31.7 µM (inactive) in the assay with SK-MEL-2.
As for `COc1cc(OC)c2c(=O)c3cccc([N+](=O)[O-])c3n(C)c2c1`, the GI50 in the assay with SF-268 was > 100 µM (inactive); with SW-620, > 100 µM (inactive); in the assay on UACC-257, 87.9 µM (inactive); in the assay with U-251 it was > 100 µM (inactive); with LOX IMVI, 80.4 µM (inactive); in the assay on KM12, > 100 µM (inactive). The GI50 in the assay on SF-539 was 74 µM (inactive); with TK-10 it was > 100 µM (inactive); in the assay on MOLT-4, 47 µM (inactive); with Malme-3M, > 100 µM (inactive); in the assay on UO-31, > 100 µM (inactive); in the assay on SNB-75, > 100 µM (inactive). For the same compound, the GI50 with 786-0, with RPMI-8226 and with SK-MEL-2 was > 100 µM (inactive) each time.
Take `Cc1ccc2c(c1)-c1c3c(nn1C)-c1ccccc1SC3O2` (stereo not given): the GI50 was 55.6 µM (inactive) in the assay on SF-268; > 100 µM (inactive) in the assay with SW-620; 50.6 µM (inactive) in the assay with UACC-257; > 100 µM (inactive) with U-251; > 100 µM (inactive) in the assay with LOX IMVI; 38.6 µM (inactive) in the assay on KM12. Further, the GI50 with SF-539 was > 100 µM (inactive); with TK-10, > 100 µM (inactive); in the assay on MOLT-4 it was 26.1 µM (inactive); with Malme-3M, > 100 µM (inactive); with UO-31 it was 20.8 µM (inactive); in the assay on SNB-75, 55.8 µM (inactive). In addition, the GI50 in the assay with 786-0 was > 100 µM (inactive); in the assay on RPMI-8226, 21.8 µM (inactive); with SK-MEL-2 it was 64.9 µM (inactive).
Turning to `NNC(=O)c1c(-c2cccnc2)cnc2ccccc12`, the GI50 with SF-268, with SW-620, in the assay with UACC-257, with PC-3, with U-251 and in the assay with DU-145 was > 100 µM (inactive) each time. The GI50 in the assay with KM12, with SF-539, in the assay with TK-10, in the assay on MOLT-4, in the assay on Malme-3M and in the assay with UO-31 was > 100 µM (inactive) each time. Moreover, the GI50 in the assay on SNB-75 is 45.6 µM (inactive); in the assay with 786-0, > 100 µM (inactive); in the assay on RPMI-8226, > 100 µM (inactive); in the assay on MCF7, > 100 µM (inactive); in the assay on SK-MEL-2 it was > 100 µM (inactive).
Consider `COC(=O)C(N)CCCC(N)C(=O)NC(C)C(=O)NC(CCC(=O)NCCCNc1ccc([N+](=O)[O-])c2[nH]c3ccccc3c(=O)c12)C(N)=O` (stereo not given), for which the GI50 with SF-268 was 3.25 µM (inactive); in the assay with SW-620, 3.7 µM (inactive); with UACC-257, 8.79 µM (inactive); with PC-3 it was 5.56 µM (inactive); with U-251 it was 4.66 µM (inactive); in the assay on DU-145, 6.56 µM (inactive). Also, the GI50 is 3.24 µM (inactive) with LOX IMVI; 4.91 µM (inactive) in the assay with KM12; 10 µM (inactive) with TK-10; 3.49 µM (inactive) with UO-31; 9.89 µM (inactive) with SNB-75; 4.53 µM (inactive) in the assay with 786-0. Further, the GI50 in the assay with RPMI-8226 was 3.19 µM (inactive); with MDA-MB-231, 10.1 µM (inactive); in the assay on SK-MEL-2, 16.8 µM (inactive).
Consider `COc1ccc(C2=C(OC(C)=O)c3cccn3-c3ccc(Cl)cc3S2)cc1`, for which the GI50 in the assay with SF-268 was 7.55 µM (inactive); in the assay on SW-620 it was 4.06 µM (inactive); with UACC-257, 4.3 µM (inactive); in the assay on PC-3, 4.69 µM (inactive); in the assay on DU-145, 9.66 µM (inactive); with LOX IMVI it was 5.37 µM (inactive). Moreover, the GI50 was 3.63 µM (inactive) with KM12; > 10 µM (inactive) in the assay on TK-10; 2.34 µM (inactive) in the assay on MOLT-4; 6.58 µM (inactive) in the assay on Malme-3M; 3.44 µM (inactive) in the assay on SNB-75; 3.85 µM (inactive) with 786-0. Moreover, the GI50 with RPMI-8226 was 2.37 µM (inactive); in the assay with MCF7, 3.35 µM (inactive); in the assay with MDA-MB-231, 3.72 µM (inactive).
